Converted amounts (≈) assume the structure as drawn. Non-standard residues stand in square brackets, D forms with d. Residues, ends and D or L forms follow the SMILES beside them. Dip = N[C@H](C(=O)O)C(c1ccccc1)c1ccccc1

Results on three molecules are retold here after article PMC11763264, “Antibacterial and Antifungal Activities of Linear and Cyclic Peptides Containing Arginine, Tryptophan, and Diphenylalanine” (Antibiotics, 2025).

In one test the test system is MRSA (ATCC BAA-1556). In words: microbe, parasite or virus in culture. The class given is cell-based, Methicillin-Resistant Staphylococcus aureus. The note with it: ATCC BAA-1556, 24 h. Here is the method:
(§1) The antibacterial activity of all ten synthesized linear and cyclic peptides was evaluated against MRSA (ATCC BAA-1556), S. aureus (ATCC 29213), E. faecium (ATCC 700221), S. pneumoniae (ATCC 51938), E. faecalis (ATCC 29212), B. subtilis (ATCC-6633), K. pneumoniae (ATCC BAA-1705), P. aeruginosa (ATCC 27883), and E. coli (ATCC 25922). Meropenem and daptomycin were used as positive controls for this study. Certain peptides are marked as “NT” (not tested) against specific bacterial strains based on initial screening data. […] The MIC was determined by micro-broth dilution protocol, where the minimal concentrations were determined to be in wells with no visible bacterial growth.
(§2) All bacterial experiments were carried out in a laminar flow hood (Labconco, Kansas City, MO, USA). The bacterial strains were cultured following the guidelines set by the Clinical Laboratory Standards Institute (CLSI). Antibacterial assays were performed using a standard microtiter dilution method as described in previous studies. The minimum inhibitory concentration (MIC) refers to the lowest peptide concentration that inhibits bacterial growth in wells with no visible bacterial growth. MIC was determined by micro-broth dilution. Bacteria were cultured overnight in 6 mL of Luria Broth (LB). A stock solution of the peptide was prepared in water and DMSO, and a test compound solution with a concentration of 256 µg/mL was made in LB. Meropenem, with a solubility of 8 mg/mL, was prepared as a stock solution at 4 mg/500 µL. An aliquot of the overnight bacteria culture was diluted in normal saline (NS, 1 mL) until achieving a 0.5 McFarland turbidity (1.5 × 10^8 bacterial cell CFU/mL). A 0.5 McFarland compared solution (60 µL) was added to Mueller Hinton Broth (MH) 8940 µL to generate a 1/150 dilution. A 200 µL test compound solution was added to the first well of a 96-well plate, and the remaining wells (2–12) were filled with 100 µL of MH media using a multi-channel pipette from a sterile reservoir. A concentration of […] of the tested peptides was prepared from a stock solution of the samples for testing in Muller−Hinton broth MH media. Peptides stock solution was dissolved in 5% DMSO in water, and the final concentration of DMSO in the first well of assay plate was 2.5% DMSO/H2O and diluted across the assay plate.
(§3) A 100 µL sample from well 1 was pipetted into well 2, and the solution was mixed thoroughly by pipetting up and down. Next, 100 µL was transferred from well 2 to well 3, followed by thorough mixing. This 2-fold serial dilution process continued through well 11, with no additions made to well 12. The final 100 µL from well 11 was discarded. After completing the serial dilution, each well (1–12) contained 100 µL of solution. The bacterial culture in MH media was vortexed and transferred to a sterile reservoir, from which 100 µL was added to each well using a 12-channel pipette. (Note: The dilutions were further diluted upon adding the bacterial solution; for example, the concentration in well 1 started at […] after the addition of the bacterial culture.) The plates were incubated overnight at 37 °C for 24 h. All experiments were performed in triplicate and repeated twice, with controls consisting of bacteria in MH media and positive controls of daptomycin or meropenem.

For another test, the system named is S. aureus (ATCC 29213). In words: microbe, parasite or virus in culture. Conditions: ATCC 29213, 24 h. The test is classed as cell-based, Staphylococcus aureus. On the procedure: as §1, §2, §3
The next test deals with E. faecium (ATCC 700221). In words: microbe, parasite or virus in culture. The class given is cell-based, Enterococcus faecium. The note with it: ATCC 700221, 24 h. On the procedure:
as §1, §2, §3

Test [1] has as its system S. pneumoniae (ATCC 51938). In words: microbe, parasite or virus in culture. The class given is cell-based, Streptococcus pneumoniae. Conditions: ATCC 51938, 24 h. Here is the method:
as §1, §2, §3

In the next test the test system is E. faecalis (ATCC 29212). In words: microbe, parasite or virus in culture. The note with it: ATCC 29212, 24 h. The class given is cell-based, Enterococcus faecalis. Here is the method: as §1, §2, §3
For another test, the system named is B. subtilis (ATCC-6633). In words: microbe, parasite or virus in culture. Conditions: ATCC-6633, 24 h. The test is classed as cell-based, Bacillus subtilis. Here is the method:
as §1, §2, §3

The test system of test [2] is K. pneumoniae (ATCC BAA-1705). In words: microbe, parasite or virus in culture. Conditions: ATCC BAA-1705, 24 h. The class given is cell-based, Klebsiella pneumoniae. Here is the method:
as §1, §2, §3

The subject of test [3] is P. aeruginosa (ATCC 27883). In words: microbe, parasite or virus in culture. The test is classed as cell-based, Pseudomonas aeruginosa. Conditions: ATCC 27883, 24 h. On the procedure:
as §1, §2, §3

In the next test the test system is E. coli (ATCC 25922). In words: microbe, parasite or virus in culture. The test is classed as cell-based, Escherichia coli. Conditions: ATCC 25922, 24 h. On the procedure: as §1, §2, §3
The subject of the next test is C. albicans (ATCC 60193). In words: microbe, parasite or virus in culture. The test is classed as cell-based, Candida albicans. Conditions: ATCC 60193, 24 h. On the procedure:
(§4) The antifungal activity of all ten synthesized linear and cyclic peptides was evaluated against C. albicans (ATCC 60193), C. parapsilosis (ATCC 22019), and A. fumigatus (AF-293). Fluconazole and amphotericin B were used as positive controls for this study. The MIC was determined at concentrations in wells with no visible fungal growth.
(§5) In this study, C. albicans and C. parapsilosis were cultured on Yeast Peptone Dextrose (YPD) agar containing 1% w/v yeast extract, 2% w/v peptone, 2% w/v D-glucose, and 1.5% agar. A single colony from the agar was selected and cultured in Tryptone soy broth supplemented with 0.1% D-glucose, then incubated for 24 h at 37 °C. The cells were washed twice with PBS by centrifugation at 2000 RPM for 5 min. The pellet was resuspended in 5 mL of PBS, diluted in RPMI 1640 with L-glutamine, supplemented with 2% D-glucose, and the pH adjusted using HEPES buffer. The suspension was then incubated for 50 min at 35 °C to achieve a final cell concentration of 10^6 cells/mL.
(§6) Peptide concentrations of 50, 25, 12.5, 6.25, and 3.1 μg/mL were tested in triplicate and repeated twice. Each well of a 96-well plate was inoculated with the prepared inoculum suspension, which was diluted with RPMI media to a final volume of 200 μL per well. The control well received the same inoculum without any compound. The plates were incubated for 24 h at 37 °C. Fungal and microbial growth were visually observed in the control wells, and the minimum inhibitory concentration (MIC) was determined as the lowest concentration at which no growth was detected in the wells. Amphotericin B was used as a standard antifungal drug.

For test [4], the system named is C. parapsilosis (ATCC 22019). In words: microbe, parasite or virus in culture. The class given is cell-based, Candida parapsilosis. Conditions: ATCC 22019, 24 h. On the procedure:
as §4, §5, §6

For a further test, the system named is MRSA. The note with it: previous work; cited from earlier work. An excerpt:
We have previously reported the synthesis of [E4W4], [KR5], [F4R5], [Y4R4], and [R4W4] and tested them against bacterial pathogens.

For `N=C(N)NCCC[C@H](NC(=O)[C@@H](NC(=O)[C@H](CCCNC(=N)N)NC(=O)[C@H](Cc1c[nH]c2ccccc12)NC(=O)[C@H](CCCNC(=N)N)NC(=O)[C@H](Cc1c[nH]c2ccccc12)NC(=O)[C@H](CCCNC(=N)N)NC(=O)[C@H](Cc1c[nH]c2ccccc12)NC(=O)[C@H](CCCNC(=N)N)NC(=O)[C@@H](N)Cc1c[nH]c2ccccc12)C(c1ccccc1)c1ccccc1)C(=O)O` [((DipR)(WR)4)] (H-WRWRWRWR[Dip]R-OH), the MIC is listed as 6.3 µM (≈ 11.1 µg/mL) in the test with MRSA (ATCC BAA-1556); 6.3 µM (≈ 11.1 µg/mL) against S. aureus (ATCC 29213); 3.1 µM (≈ 5.48 µg/mL) in the test with E. faecium (ATCC 700221); 0.78 µM (≈ 1.38 µg/mL) in [1]; 12.5 µM (≈ 22.1 µg/mL) with E. faecalis (ATCC 29212); 3.1 µM (≈ 5.48 µg/mL) against B. subtilis (ATCC-6633). Further, the MIC in test [2] is listed as 12.5 µM (≈ 22.1 µg/mL); in test [3] it was 25 µM (≈ 44.2 µg/mL); against E. coli (ATCC 25922), 12.5 µM (≈ 22.1 µg/mL); in the test with C. albicans (ATCC 60193), 28.2 µM (≈ 49.8 µg/mL); in [4] it was 14.1 µM (≈ 24.9 µg/mL).
Turning to `N=C(N)NCCC[C@H](NC(=O)[C@H](CCCNC(=N)N)NC(=O)[C@@H](NC(=O)[C@H](CCCNC(=N)N)NC(=O)[C@@H](NC(=O)[C@H](CCCNC(=N)N)NC(=O)[C@@H](NC(=O)[C@H](CCCNC(=N)N)NC(=O)[C@@H](N)C(c1ccccc1)c1ccccc1)C(c1ccccc1)c1ccccc1)C(c1ccccc1)c1ccccc1)C(c1ccccc1)c1ccccc1)C(=O)O` [(DipR)4R] (H-[Dip]R[Dip]R[Dip]R[Dip]RR-OH), the MIC with MRSA (ATCC BAA-1556) worked out at 1.6 µM (≈ 2.71 µg/mL); against S. aureus (ATCC 29213), 1.6 µM (≈ 2.71 µg/mL); with E. faecium (ATCC 700221), 1.6 µM (≈ 2.71 µg/mL); in [1], 0.39 µM (≈ 0.66 µg/mL); against E. faecalis (ATCC 29212), 3.1 µM (≈ 5.25 µg/mL); in the test with B. subtilis (ATCC-6633), 1.6 µM (≈ 2.71 µg/mL). For the same molecule, the MIC is on record as 6.3 µM (≈ 10.7 µg/mL) in test [2]; 12.5 µM (≈ 21.2 µg/mL) in test [3]; 6.3 µM (≈ 10.7 µg/mL) with E. coli (ATCC 25922); 7.4 µM (≈ 12.5 µg/mL) against C. albicans (ATCC 60193); 7.4 µM (≈ 12.5 µg/mL) in test [4].
As for [R4W4], in the test with MRSA, the “MIC against MRSA” value is 2.67 µg/mL.
